Results on one molecule are retold here after US7592336B2, “Hepatitis C virus inhibitors” (Bristol-Myers Squibb Company, priority 2005, dated 2009).

SMILES strings stand for the structures. pIC50: −log10 of the molar value.

In test [1] the target is T1, human neutrophil elastase (HNE) (Homo sapiens, UniProt P08246).
T1 construct: purchased Sigma
T1 sequence (P08246 30-267): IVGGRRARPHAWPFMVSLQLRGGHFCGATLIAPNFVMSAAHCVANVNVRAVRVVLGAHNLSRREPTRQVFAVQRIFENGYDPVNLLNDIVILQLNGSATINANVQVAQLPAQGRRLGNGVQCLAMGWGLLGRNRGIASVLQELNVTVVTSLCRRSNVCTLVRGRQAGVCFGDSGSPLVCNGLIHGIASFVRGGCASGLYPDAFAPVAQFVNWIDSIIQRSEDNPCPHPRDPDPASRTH
Kind of test: Specificity assay, neutrophil elastase. Type of test: biochemical. As to conditions: 2 h enzyme-inhibitor pre-incubation; read-out: HLE activity in the specificity assays (IC50). The procedure:
The specificities of compounds of the present disclosure were determined against a variety of serine proteases: human neutrophil elastase (HNE), porcine pancreatic elastase (PPE) and human pancreatic chymotrypsin and one cysteine protease: human liver cathepsin B. In all cases a 96-well plate format protocol using calorimetric p-nitroaniline (pNA) substrate specific for each enzyme was used as described previously (PCT Patent Application No. WO 00/09543) with some modifications to the serine protease assays. All enzymes were purchased from Sigma while the substrates were from Bachem.
Each assay included a 2 h enzyme-inhibitor pre-incubation at room temperature followed by addition of substrate and hydrolysis to 30% conversion as measured on a Spectramax Pro microplate reader. Compound concentrations varied from 100 to 0.4 μM depending on their potency. […]
The percentage of inhibition was calculated using the formula: [1−((UVinh−UVblank)/(UVctl−UVblank))]×100 […]

Test [2] deals with T2, HCV NS3/4A protease complex, H77 strain (Hepatitis C virus genotype 1a, UniProt P27958, C1454S/C1711G).
T2 construct: DNA encoding the recombinant HCV NS3/4A protease complex (amino acids 1027 to 1711) for these strains; inferred from pET21b vector and Ni-NTA purification; made in house; host or cells: Escherichia coli BL21 (DE3), pET21b
The test is described as follows: FRET peptide assay to monitor HCV NS3/4A proteolytic activity (H77 strain). The class given is biochemical, HCV genotype 1a. As to conditions: read-out: IC50 against NS3/4A H77 strain. An excerpt:
HCV NS3 protease complexes, derived from the BMS strain, H77 strain or J4L6S strain, were generated, as described below. These purified recombinant proteins were generated for use in a homogeneous assay (see below) to provide an indication of how effective compounds of the present disclosure would be in inhibiting HCV NS3 proteolytic activity.
The H77 and J4L6S strains were used for production of recombinant NS3/4A protease complexes. DNA encoding the recombinant HCV NS3/4A protease complex (amino acids 1027 to 1711) for these strains were manipulated as described by P. Gallinari et al. (see Gallinari P, Paolini C, Brennan D, Nardi C, Steinkuhler C, De Francesco R. Biochemistry. 38(17):5620-32, (1999)). Briefly, a three-lysine solubilizing tail was added at the 3′-end of the NS4A coding region. The cysteine in the P1 position of the NS4A-NS4B cleavage site (amino acid 1711) was changed to a glycine to avoid the proteolytic cleavage of the lysine tag. Furthermore, a cysteine to serine mutation was introduced by PCR at amino acid position 1454 to prevent the autolytic cleavage in the NS3 helicase domain. […]

T2 sequence (P27958 1027-1711 C1454S/C1711G, one chain of several): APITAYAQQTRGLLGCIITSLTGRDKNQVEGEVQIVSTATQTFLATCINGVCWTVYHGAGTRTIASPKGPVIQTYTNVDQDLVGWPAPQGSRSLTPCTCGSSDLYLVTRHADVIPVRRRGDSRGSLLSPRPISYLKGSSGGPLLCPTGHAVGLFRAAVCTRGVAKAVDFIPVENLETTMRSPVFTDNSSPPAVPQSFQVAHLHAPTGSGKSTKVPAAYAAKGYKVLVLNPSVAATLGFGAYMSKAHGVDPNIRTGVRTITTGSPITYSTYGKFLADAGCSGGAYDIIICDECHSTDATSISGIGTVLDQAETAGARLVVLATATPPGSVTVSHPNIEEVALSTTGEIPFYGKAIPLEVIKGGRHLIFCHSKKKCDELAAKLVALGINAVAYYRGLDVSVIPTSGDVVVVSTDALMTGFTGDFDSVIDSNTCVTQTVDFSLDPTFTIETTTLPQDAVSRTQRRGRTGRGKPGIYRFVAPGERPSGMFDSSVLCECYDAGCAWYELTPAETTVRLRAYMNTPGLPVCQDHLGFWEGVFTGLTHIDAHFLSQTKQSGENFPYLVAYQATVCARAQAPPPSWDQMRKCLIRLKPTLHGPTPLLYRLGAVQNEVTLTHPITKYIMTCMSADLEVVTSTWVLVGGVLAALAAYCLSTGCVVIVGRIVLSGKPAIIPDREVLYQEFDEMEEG

Regarding `C=C[C@@H]1C[C@]1(NC(=O)[C@@H]1C[C@@](O)(c2ccc(-c3ccccc3)cc2)CN1C(=O)[C@@H](NC(=O)OC(C)(C)C)C(C)(C)C)C(=O)NS(=O)(=O)C1CC1` [Compound 3], the pIC50 is less than 4.00 in test [1] and 8.80 in test [2].
